{"source": "patent US11382985B2", "about": "“Anti-tumour immune responses to modified self-epitopes” (Scancell Limited, priority 2015, dated 2022)", "key": {"splenocytes [1]": {"test_system": "splenocytes", "assay": "Peptide immunisation and ex vivo Elispot, DR4 mice", "assay_type": "in vivo, HLA-DR4 transgenic mouse", "details": "for IFNγ response to 15mer peptide spanning 241-260: label = 15mer used for restimulation; for IFNγ response to the human sequence / IFNγ response to the mouse sequence: single immunisation of the human citrullinated peptide", "protocol": "(§1) C57BL/6 mice (Charles River, UK), HLA-DR4 mice (Taconic, USA), HHDII/DR1 mice (Pasteur institute, France) and the HHD/HLA-DP4 transgenic strain of mouse as described in patent WO2013/017545 A1 (EMMA repository, France) were used, aged between 8 and 12 weeks, and cared for by the staff at Nottingham Trent University. All work was carried out under a Home Office project licence. Peptides were dissolved in PBS to 1 mg/ml and then emulsified (a series of dilutions) with different adjuvants: CpG and MPLA 6 μg/mouse of each (Invivogen, UK), Incomplete Freund's 50 μl/mouse (Sigma, UK), poly I:C 10 μg/mouse (Invivogen, UK), Imiquimod 25 μg/mouse (Invivogen, UK) and GMCSF 10 μg/mouse (Peprotech, UK). Peptides (25 μg/mouse) were injected subcutaneously at the base of the tail. DNA (1 μg/mouse) was coated onto 1.0 μm gold particles (BioRad, Hemel Hempstead, UK) using the manufacturer's instructions and administered intradermally by genegun (BioRad). Homspera (10 nM/mouse) (PeptideSynthetics, UK) was injected intradermally with genegun immunisation. Mice were immunized at either day 0 for peptide immunisation or days, 0 and 7 for genegun immunisation, unless otherwise stated. Spleens were removed for analysis at day 14 for peptide and day 20 for peptide or genegun immunisation unless stated otherwise.\n(§2) Elispot assays were performed using murine IFNγ, IL-17 and IL-10 capture and detection reagents according to the manufacturer's instructions (Mabtech, Sweden). In brief, anti-IFNγ, IL-17 and IL-10 antibodies were coated onto wells of 96-well Immobilin-P plate. Synthetic peptides (at a variety of concentrations) and 5×10^5 per well splenocytes were added to the wells of the plate in triplicate. Tumour target cells were added where relevant at 5×10^4/well in triplicate and plates incubated for 40 hrs at 37° C. After incubation, captured IFN and IL-10 were detected by biotinylated anti-IFNγ and IL-10 antibodies and developed with a streptavidin alkaline phosphatase and chromogenic substrate. Spots were analysed and counted using an automated plate reader (Cellular Technologies Ltd)."}, "splenocytes [2]": {"test_system": "splenocytes", "assay": "Screening of citrullinated Enolase peptide pools, ex vivo IFNγ Elispot, C57BL/6 mice", "assay_type": "in vivo, C57BL/6 mouse", "details": "single immunisation with pool of 4-6 human citrullinated peptides, 20 μg each, CpG/MPLA, day 14, label = peptide used for restimulation", "protocol": "as §1, §2\n(§3) Screening was performed to identify potential citrullinated Enolase epitopes in mice. Mice were immunised with pools of 4-6 human citrullinated peptides. […] Each pool was administered as a single immunisation containing 20 μg of each peptide and CpG/MPLA as an adjuvant. After 14 days the mice were culled and the immune responses to each peptide within the immunising pool were assessed by ex vivo Elispot (FIG. 2). In addition, the splenocytes were screened against the murine equivalent sequences. We have previously shown that citrullinated peptides can induce responses in the transgenic DR4 mouse strain. Given that different mouse strains have different MHC repertoires a number of strains were used for screening. Peptide responses were assessed in C57BL/6 mice as well as transgenic strains expressing human DR4 or HHD/DR1 in a C57BL/6 background (see materials and methods)."}, "splenocytes [3]": {"test_system": "splenocytes", "assay": "Peptide immunisation and ex vivo Elispot, C57Bl/6 mice", "assay_type": "in vivo, C57Bl/6 mouse", "details": "C57Bl/6 mice immunised with the human citrullinated peptide", "protocol": "as §1, §2"}, "splenocytes [4]": {"test_system": "splenocytes", "assay": "Screening of citrullinated Enolase peptide pools, ex vivo IFNγ Elispot, DR4 mice", "assay_type": "in vivo, transgenic DR4 mouse", "details": "single immunisation with pool of 4-6 human citrullinated peptides, 20 μg each, CpG/MPLA, day 14, label = peptide used for restimulation", "protocol": "C57BL/6 mice (Charles River, UK), HLA-DR4 mice (Taconic, USA), HHDII/DR1 mice (Pasteur institute, France) and the HHD/HLA-DP4 transgenic strain of mouse as described in patent WO2013/017545 A1 (EMMA repository, France) were used, aged between 8 and 12 weeks, and cared for by the staff at Nottingham Trent University. All work was carried out under a Home Office project licence. Peptides were dissolved in PBS to 1 mg/ml and then emulsified (a series of dilutions) with different adjuvants: CpG and MPLA 6 μg/mouse of each (Invivogen, UK), Incomplete Freund's 50 μl/mouse (Sigma, UK), poly I:C 10 μg/mouse (Invivogen, UK), Imiquimod 25 μg/mouse (Invivogen, UK) and GMCSF 10 μg/mouse (Peprotech, UK). […]\nElispot assays were performed using murine IFNγ, IL-17 and IL-10 capture and detection reagents according to the manufacturer's instructions (Mabtech, Sweden). […] After incubation, captured IFN and IL-10 were detected by biotinylated anti-IFNγ and IL-10 antibodies and developed with a streptavidin alkaline phosphatase and chromogenic substrate. Spots were analysed and counted using an automated plate reader (Cellular Technologies Ltd).\nScreening was performed to identify potential citrullinated Enolase epitopes in mice. […] After 14 days the mice were culled and the immune responses to each peptide within the immunising pool were assessed by ex vivo Elispot (FIG. 2). […]"}, "splenocytes [5]": {"test_system": "splenocytes", "assay": "Peptide immunisation and ex vivo Elispot, DP4 mice", "assay_type": "in vivo, HHD/HLA-DP4 transgenic mouse", "protocol": "as §1, §2"}, "splenocytes [6]": {"test_system": "splenocytes", "assay": "Screening of citrullinated Enolase peptide pools, ex vivo IFNγ Elispot, HHD/DR1 mice", "assay_type": "in vivo, transgenic HHD/DR1 mouse", "details": "single immunisation with pool of 4-6 human citrullinated peptides, 20 μg each, CpG/MPLA, day 14, label = peptide used for restimulation", "protocol": "as §1, §2, §3"}, "splenocytes [7]": {"test_system": "splenocytes", "assay": "Peptide immunisation and ex vivo Elispot, DR1/HHD mice", "assay_type": "in vivo, HHD/DR1 transgenic mouse", "details": "single immunisation of the human citrullinated peptide", "protocol": "as §1, §2"}, "[8]": {"details": "DR4 mice immunised with human 241cit"}}, "note": "Square brackets hold non-standard residues; d marks the D form. Ends that are not written are not given here. Cit = NC(=O)NCCC[C@H](N)C(=O)O"}
{"substance": "aa241-255: 15mer peptide spanning the Enolase 241-260 sequence (VIGMDVAASEFFRSG; UniProt P06733 241-255, looked up, fragment)", "values": [{"measurement": "IFNγ response to 15mer peptide spanning 241-260", "setting": "splenocytes [1]; [8]", "value": "stimulating specific responses"}]}
{"substance": "EVDLYTAKGLF-CIT-AAVPSGAS [mouse 21cit]", "values": [{"measurement": "IFNγ response to peptide compared to media", "setting": "splenocytes [2]", "value": "not"}]}
{"substance": "EVDLFTSKGLF-CIT-AAVPSGAS [Enolase 21cit]", "values": [{"measurement": "IFNγ response to peptide compared to media", "setting": "splenocytes [2]", "value": "significant response"}, {"measurement": "IFNγ response in presence of CD4 blocking antibody", "setting": "splenocytes [3]", "value": "efficiently blocked"}, {"measurement": "IFNγ response in presence of CD8 blocking antibody", "setting": "splenocytes [3]", "value": "not"}, {"measurement": "IFNγ response to the citrullinated peptide", "setting": "splenocytes [3]", "value": "strong IFNγ responses"}, {"measurement": "IFNγ response to the human sequence", "setting": "splenocytes [1]; DR4 mice", "value": "not"}, {"measurement": "IFNγ response to the mouse sequence", "setting": "splenocytes [1]; DR4 mice", "value": "low level but significant response"}]}
{"substance": "VIGMDVAASEFY-CIT-SGKYDLD (VIGMDVAASEFY[Cit]SGKYDLD) [mouse 241cit]", "values": [{"measurement": "IFNγ response to peptide compared to media", "setting": "splenocytes [4]", "value": "significant response"}, {"measurement": "IFNγ response in presence of human MHC class II blocking antibody (L243)", "setting": "splenocytes [1]; DR4 mice immunised with human 241cit, label = restimulating peptide", "value": "significantly reduced"}, {"measurement": "time after immunisation at which IFNγ response is detectable", "setting": "splenocytes [1]; DR4 mice, single dose in CpG/MPLA, sacrificed after 2, 6 or 14 days", "value": 2, "unit": "days"}, {"measurement": "IFNγ response compared to the wild type peptides", "setting": "splenocytes [5]; DP4 mice, three doses of human Enolase 241cit, label = restimulating peptide", "value": "increased IFNγ responses"}, {"measurement": "IFNγ responses to citrullinated and wildtype peptide", "setting": "splenocytes [5]; DP4 transgenic mice immunised with the murine peptide, three doses", "value": "specific to the citrullinated peptide but not the wildtype"}]}
{"substance": "FKSPDDPS-CIT-YITPDQLADLY [mouse 261cit]", "values": [{"measurement": "IFNγ response to peptide compared to media", "setting": "splenocytes [2]", "value": "not"}]}
{"substance": "IFDScitGNPTVEVDLF [enolase 11cit]", "values": [{"measurement": "IFN response to the equivalent murine sequence", "setting": "splenocytes [3]", "value": "cross reacted"}, {"measurement": "IFNγ response in presence of CD4 blocking antibody", "setting": "splenocytes [3]", "value": "abrogated the response"}, {"measurement": "IFNγ response in presence of CD8 blocking antibody", "setting": "splenocytes [3]", "value": "no effect"}, {"measurement": "IFNγ response to the citrullinated peptide", "setting": "splenocytes [3]", "value": "IFN responses"}, {"measurement": "IFNγ response to the wt peptide", "setting": "splenocytes [3]", "value": "minimal reactivity"}, {"measurement": "IL-10 response to the citrullinated peptide", "setting": "splenocytes [3]", "value": "No IL-10 responses"}]}
{"substance": "KGVPLY-CIT-HIADLAGNPEVIL [mouse 126cit]", "values": [{"measurement": "IFNγ response to peptide compared to media", "setting": "splenocytes [2]", "value": "significant response"}, {"measurement": "IFNγ response to peptide compared to media", "setting": "splenocytes [6]", "value": "not"}]}
{"substance": "KGVPLY-CIT-HIADLAGNSEVIL [Enolase 126cit]", "values": [{"measurement": "IFNγ response to peptide compared to media", "setting": "splenocytes [2]", "value": "not"}, {"measurement": "IFNγ response to the human sequence", "setting": "splenocytes [7]", "value": "not"}, {"measurement": "IFNγ response to peptide compared to media", "setting": "splenocytes [6]", "value": "significant response"}, {"measurement": "IFNγ response to the human sequence", "setting": "splenocytes [1]; DR4 mice", "value": "low level significant response"}]}
{"substance": "MSILRIHA-CIT-EIFDSRGNPTV [mouse 1cit]", "values": [{"measurement": "IFNγ response to peptide compared to media", "setting": "splenocytes [6]", "value": "did induce a response"}]}
{"substance": "VGDDLTVTNPK-CIT-IAKAVNEK [Enolase 316cit]", "values": [{"measurement": "IFNγ response to the human sequence", "setting": "splenocytes [7]", "value": "moderate response"}, {"measurement": "IFNγ response to the mouse sequence", "setting": "splenocytes [7]", "value": "not"}, {"measurement": "IFNγ response to peptide compared to media", "setting": "splenocytes [6]", "value": "significant response"}, {"measurement": "IFNγ response to the human sequence", "setting": "splenocytes [1]; DR4 mice", "value": "moderate response"}, {"measurement": "IFNγ response to the mouse sequence", "setting": "splenocytes [1]; DR4 mice", "value": "not"}]}
{"substance": "VGDDLTVTNPK-CIT-IAKAASEK [mouse 316cit]", "values": [{"measurement": "IFNγ response to peptide compared to media", "setting": "splenocytes [6]", "value": "not"}]}
{"substance": "MSILKIHA-CIT-EIFDSRGNPTV [Enolase 1-20]", "values": [{"measurement": "IFNγ response to peptide compared to media", "setting": "splenocytes [6]", "value": "did not induced a significant response"}]}
{"substance": "FKSPDDPS-CIT-YISPDQLADLY [human 261cit]", "values": [{"measurement": "IFNγ response to peptide compared to media", "setting": "splenocytes [2]", "value": "significant response"}]}
{"substance": "aa246-260: 15mer peptide spanning the Enolase 241-260 sequence (VAASEFFRSGKYDLD; UniProt P06733 246-260, looked up, fragment)", "values": [{"measurement": "IFNγ response to 15mer peptide spanning 241-260", "setting": "splenocytes [1]; [8]", "value": "no response"}]}
